Reference: patent publication US20250367302A1, “SMALL MOLECULE DRUG-OLIGONUCLEOTIDE CONJUGATE AND USE THEREOF” (SHANGHAI JIAO TONG UNIVERSITY, priority 2022, published 2025)
In the oligonucleotide strings, read from the 5' end, every base follows the letter of its sugar. An asterisk marks phosphorothioate; unmarked linkages are phosphodiester. Other units and linkages are bracketed, terminal groups are in braces. A string of capitals states the bases alone. d = 2'-deoxy (DNA); r = 2'-OH (RNA)

Experiments:
[1] = test system: NFKBIZ mRNA; assay: NFKBIZ mRNA expression by RT-qPCR in LPS-stimulated HCECs; type: cell-based, human; details: LPS-stimulated (100 ng/mL) HCECs, 10 μM ASO or siRNA, without transfection reagent, 6 h + 48 h
Description: HCECs were inoculated in a 6-well plate at a density of 1×10^5 cells/well and cultured until adherence. The cells were then stimulated with 100 ng/mL lipopolysaccharide (LPS) overnight. After removing the supernatant, 1 mL of Opti-MEM medium containing ASONFKBIZ-h, ASONFKBIZ-h+Lipofectamine2000 (Lipo2000), and CsA-ASONFKBIZ-h (all containing 10 µM ASO) were added, respectively. Cells without any treatment were used as a blank reference (Mock). After incubation at 37° C. for 6 h, the cells were transferred into DMEM medium and incubated for another 48 h. The cells were collected and RNA was extracted for RT-qPCR to analyze the expression level of the NFKBIZ mRNA in HCECs, and experimental results were shown in FIG. 9. The expression level of NFKBIZ mRNA in HCECs after LPS stimulation was about 1.3 times that of normal cells. […] After adding CsA-ASONFKBIZ-h for co-incubation, the expression of NFKBIZ mRNA was reduced to about 0.8 times that of normal cells.
(§1) HCECs were inoculated in a 6-well plate at a density of 1×10^5 cells/well and cultured until adherence. The cells were then stimulated with 100 ng/mL LPS overnight. After removing the supernatant, 1 mL of Opti-MEM medium containing ASONFKBIZ-h+Lipo2000 complex and 2CsA-ASONFKBIZ-h nanomicelles (all containing 10 µM ASO) were added, respectively. After incubation at 37° C. for 6 h, the cells were transferred into DMEM medium and incubated for another 48 h. The cells were collected and RNA was extracted for RT-qPCR to analyze the expression level of the NFKBIZ mRNA in HCECs, and experimental results were shown in FIG. 12.
as §1, with “ng/ml” for “ng/mL”, “3CsA-ASONFKBIZ-h” for “2CsA-ASONFKBIZ-h”, “15.” for “12.”
HCECs were inoculated in a 6-well plate at a density of 1×10^5 cells/well and cultured until adherence. The cells were then stimulated with 100 ng/mL LPS overnight. 1 mL of Opti-MEM medium containing ASONFKBIZ-h+Lipo2000 complex and CsA3-ASONFKBIZ-h nanomicelles (all containing 10 µM ASO) were added, respectively. After incubation at […]. 37° C. for 6 h, the cells were transferred into DMEM medium and incubated for another 48 h. After collected and RNA was extracted for RT-qPCR to evaluate the expression level of NFKBIZ mRNA in HCECs, and the experimental results were shown in FIG. 23.
HCECs were inoculated in a 6-well plate at a density of 1×10^5 cells/well and cultured overnight until adherence. The cells were then stimulated with 100 ng/ml LPS for 12 h. After removing the supernatant, 1 mL of Opti-MEM medium containing siRNANFKBIZ-h+Lipo2000 complex and nCsA-siRNANFKBIZ-h (n=1, 2, 3) conjugates and nanomicelles (all containing 10 μM siRNA) were added, respectively. After incubation at 37° C. for 6 h, the cells were transferred into DMEM medium and incubated for another 48 h. The cells were collected and RNA was extracted for RT-qPCR to evaluate the expression of NFKBIZ mRNA in HCECs, and experimental results were shown in FIG. 27. […]

[2] = test system: mice with xerophthalmia (0.2% benzalkonium chloride); assay: Benzalkonium chloride xerophthalmia mouse model: sodium fluorescein staining and phenol red cotton thread tear test; type: in vivo, mouse (C57BL/6); details: for phenol red cotton thread infiltration length (tear secretion) after 14 d of treatment / sodium fluorescein staining eye score after 14 d of treatment: eye drops 5 μL per eye twice daily, 400 μM CsA (10RAP: 400 μM rapamycin), day 14; for phenol red cotton thread infiltration length (tear secretion), day 0 (before treatment) / sodium fluorescein staining eye score, day 0 (before treatment): xerophthalmia mice, baseline of the treatment group
Description: The ocular xerophthalmia model was established in 6-8 weeks old mice (C57BL/6, Suzhou Xishan Biotechnology Co., Ltd.) with 0.2% benzalkonium chloride. 5 μL of 0.2% benzalkonium chloride was dripped into each eye of the mice, once in the morning and once in the evening every day, for two consecutive weeks. After successful modeling, the hospital-prepared CsA eye drops (400 µM CsA, referred to as hospital-prepared CsA eye drops or CsA eye drops, provided by the Eye, Ear, Nose and Throat Hospital Affiliated to Fudan University School of Medicine, Shanghai) and CsA-ASONFKBIZ-m (400 µM CsA) were used for eye drops treatment, 5 μL per eye, once in the morning and once in the evening. Sodium fluorescein staining and phenol red cotton thread tear secretion test were conducted on days 0, 7, and 14 of treatment to evaluate the therapeutic effect.
(§2) The ocular xerophthalmia model was established in 6-8 weeks old mice (C57BL/6, Suzhou Xishan Biotechnology Co., Ltd.) with 0.2% benzalkonium chloride. 5 μL of 0.2% benzalkonium chloride was dripped into each eye of the mice, once in the morning and once in the evening every day, for two consecutive weeks. After successful modeling, the hospital-prepared CsA eye drops (400 μM CsA, provided by the Eye, Ear, Nose and Throat Hospital Affiliated to Fudan University School of Medicine, Shanghai) and 2CsA-ASONFKBIZ-m (400 µM CsA) were used for eye drops treatment, 5 μL per eye, once in the morning and once in the evening. Sodium fluorescein staining and phenol red cotton thread tear secretion test were conducted on days 0, 7, and 14 of treatment to evaluate the therapeutic effect.
as §2, with “µM” for “μM”, “provided” for “provided by”, “3CsA-ASONFKBIZ-m nanomicelles (133 µM ASO concentration, 400” for “2CsA-ASONFKBIZ-m (400”
as §2, with “CsA3-ASONFKBIZ-m nanomicelles” for “2CsA-ASONFKBIZ-m”, “0” for “0, 7,”
The ocular xerophthalmia model was established in 6-8 weeks old mice (C57BL/6, Suzhou Xishan Biotechnology Co., Ltd.) using 0.2% benzalkonium chloride. 5 μL of 0.2% benzalkonium chloride was dripped into each eye of the mouse, once in the morning and once in the evening every day for two weeks. After successful modeling, the hospital-prepared CsA eye drops (400 µM CsA, provided by the Eye, Ear, Nose and Throat Hospital Affiliated to Fudan University School of Medicine, Shanghai) and CsA-siRNANFKBIZ-m (400 µM CsA), 2CsA-siRNANFKBIZ-m nanomicelles (400 µM CsA), 3CsA-siRNANFKBIZ-m nanomicelles (400 µM CsA) were used for eye drops treatment, 5 μL per eye, once in the morning and once in the evening. […]

Row | Substance | expression of NFKBIZ mRNA relative to normal cells [1] | phenol red cotton thread infiltration length (tear secretion) after 14 d of treatment [2] | sodium fluorescein staining eye score after 14 d of treatment [2] | phenol red cotton thread infiltration length (tear secretion), day 0 (before treatment) [2] [mm] | sodium fluorescein staining eye score, day 0 (before treatment) [2] [points]
1 | 2CsA-ASONFKBIZ-h: two CsA molecules coupled to 2DBCO ASO targeting human NFKBIZ (SEQ ID 3), self-assembled (ATCAGACAACGAATCGGGCNTT; two CsA via DBCO click; modified_base 20 OTHER; n is t base modified with DBCO moiety) | about 0.8 times that of normal cells |  |  |  | 
2 | 2CsA-ASONFKBIZ-m: two CsA molecules coupled to 2DBCO ASO targeting mouse NFKBIZ (SEQ ID 4), self-assembled (AATACTGGTACATTGACGCCNTT; two CsA via DBCO click; modified_base 21 OTHER; n is t base modified with DBCO moiety) |  | about 3.5 mm | about 3.5 points | 1.5 | 6
3 | 2CsA-siRNANFKBIZ-m: two CsA coupled to sense strand of siRNA targeting mouse NFKBIZ (SEQ ID NO: 17/18) (sense GCGUCAAUGUACCAGUAUUUUNUU; antisense AAUACUGGUACAUUGACGCCU; two CsA on sense strand; modified_base 22 OTHER; n is t base modified with DBCO moiety) |  | about 2.5 mm | about 2 points | 1.5 | 6
4 | 3CsA-ASONFKBIZ-m: three CsA molecules coupled to 3DBCO ASO targeting mouse NFKBIZ (SEQ ID 6), self-assembled (AATACTGGTACATTGACGCCNTNTT; three CsA via DBCO click; modified_base 21 OTHER; n is t base modified with DBCO moiety; modified_base 23 OTHER) |  | about 4 mm | about 4 points | 1.3 | 10
5 | 3CsA-siRNANFKBIZ-m: three CsA coupled to sense strand of siRNA targeting mouse NFKBIZ (SEQ ID NO: 19/20) (sense GCGUCAAUGUACCAGUAUUUUNUNUU; antisense AAUACUGGUACAUUGACGCCU; three CsA on sense strand; modified_base 22 OTHER; n is t base modified with DBCO moiety; modified_base 24 OTHER) |  | about 2.5 mm | about 2 points | 1.5 | 6
6 | CsA-ASONFKBIZ-m: single cyclosporin A (CsA-N3) click-coupled to 3′-DBCO ASO targeting mouse NFKBIZ gene (SEQ ID NO: 2) (AATACTGGTACATTGACGCC; 3'-DBCO ASO click-conjugated to one cyclosporin A, sugar and linkages not given here, further chemistry not given here) |  | about 3.2 mm | about 3 points | 1.8 | 5.5
7 | CsA-siRNANFKBIZ-m: one CsA coupled to sense strand of siRNA targeting mouse NFKBIZ (SEQ ID NO: 15/16) (sense rGrCrGrUrCrArArUrGrUrArCrCrArGrUrArUrUdTdT; antisense rArArUrArCrUrGrGrUrArCrArUrUrGrArCrGrCdCdT; cyclosporin A clicked onto the sense 3' DBCO group, further chemistry not fully specified) |  | about 2.5 mm | about 3 points | 2 | 6
